Reference: ChEMBL document CHEMBL1201862, “PubChem BioAssay data set” (2004)
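Tested at 5 concentrations; 48 h exposure; 96-well plates; endpoints linearly interpolated, else capped at highest concentration. GI50 = concentration required for 50% inhibition of growth.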 The source made the active and inactive calls. Cut-off read from the data, not from the text of the source: active = GI50 up to about 1.1 µM and inactive = higher.

Experiments:
Test in all cases: DTP human tumour cell line panel, 48 h
[1] = system: SF-539
[2] = system: UACC-257
[3] = system: TK-10
[4] = system: A549
[5] = system: KM12
[6] = system: M14
[7] = system: HCC 2998
[8] = system: SN12C
[9] = system: OVCAR-8
[10] = system: SNB-19
[11] = system: UACC-62
[12] = system: PC-3
[13] = system: K562
[14] = system: NCI/ADR-RES
[15] = system: COLO 205
[16] = system: Malme-3M
[17] = system: HT-29

C=CC(=O)N1C/C(=C\c2ccc(N(C)C)cc2)C(=O)/C(=C/c2ccc(N(C)C)cc2)C1
GI50 [1]: 26.2 µM (inactive) | GI50 [2]: > 100 µM (inactive) | GI50 [3]: > 100 µM (inactive) | GI50 [4]: > 100 µM (inactive) | GI50 [5]: 8.67 µM (inactive) | GI50 [6]: > 100 µM (inactive) | GI50 [7]: > 100 µM (inactive) | GI50 [8]: > 100 µM (inactive) | GI50 [9]: > 100 µM (inactive) | GI50 [10]: > 100 µM (inactive) | GI50 [11]: 44.3 µM (inactive) | GI50 [12]: 34 µM (inactive) | GI50 [13]: 8.97 µM (inactive) | GI50 [14]: > 100 µM (inactive) | GI50 [15]: > 100 µM (inactive) | GI50 [16]: > 100 µM (inactive) | GI50 [17]: 10.4 µM (inactive)

O=c1c(=O)c2cscc2c1=O
GI50 [1]: 4.95 µM (inactive) | GI50 [2]: 4.27 µM (inactive) | GI50 [3]: 4.56 µM (inactive) | GI50 [4]: 8.99 µM (inactive) | GI50 [5]: 5.15 µM (inactive) | GI50 [6]: 4.94 µM (inactive) | GI50 [7]: 2.92 µM (inactive) | GI50 [8]: 5.87 µM (inactive) | GI50 [9]: 6.55 µM (inactive) | GI50 [10]: 6.56 µM (inactive) | GI50 [11]: 4.73 µM (inactive) | GI50 [12]: 4.58 µM (inactive) | GI50 [13]: 0.0955 µM (active) | GI50 [14]: 8 µM (inactive) | GI50 [15]: 4.73 µM (inactive) | GI50 [16]: 4.39 µM (inactive) | GI50 [17]: 4.93 µM (inactive)

CC(=O)c1c(C)n(C)c2c1nnc1ccccc12
GI50 [1]: 34.8 µM (inactive) | GI50 [2]: > 100 µM (inactive) | GI50 [3]: 29.4 µM (inactive) | GI50 [4]: 32.2 µM (inactive) | GI50 [5]: 47.6 µM (inactive) | GI50 [6]: 67.8 µM (inactive) | GI50 [7]: 85.5 µM (inactive) | GI50 [8]: 40.3 µM (inactive) | GI50 [9]: 43.5 µM (inactive) | GI50 [10]: 55.5 µM (inactive) | GI50 [11]: 23.1 µM (inactive) | GI50 [12]: 59.3 µM (inactive) | GI50 [14]: 46.5 µM (inactive) | GI50 [15]: 30.9 µM (inactive) | GI50 [16]: 39.5 µM (inactive) | GI50 [17]: 34.1 µM (inactive)

C/C=C(/CBr)CCC(Br)C(C)(C)Cl.C/C=C(\CBr)CCC(Br)C(C)(C)Cl (configuration not stated)
GI50 [1]: > 10 µM (inactive) | GI50 [2]: > 10 µM (inactive) | GI50 [3]: > 10 µM (inactive) | GI50 [4]: > 10 µM (inactive) | GI50 [5]: > 10 µM (inactive) | GI50 [6]: > 10 µM (inactive) | GI50 [7]: > 10 µM (inactive) | GI50 [8]: > 10 µM (inactive) | GI50 [9]: > 10 µM (inactive) | GI50 [10]: > 10 µM (inactive) | GI50 [12]: > 10 µM (inactive) | GI50 [13]: > 10 µM (inactive) | GI50 [14]: > 10 µM (inactive) | GI50 [15]: > 10 µM (inactive) | GI50 [16]: > 10 µM (inactive) | GI50 [17]: > 10 µM (inactive)

COc1c(C)c(C/C=C(\C)CC/C=C(\C)CC/C=C(\C)CC/C=C(\C)CCC=C(C)C)c(OC)c(OC)c1OC
GI50 [1]: > 100 µM (inactive) | GI50 [2]: 80.5 µM (inactive) | GI50 [3]: 24 µM (inactive) | GI50 [4]: 17.6 µM (inactive) | GI50 [5]: 14.7 µM (inactive) | GI50 [6]: 50.9 µM (inactive) | GI50 [8]: 22.9 µM (inactive) | GI50 [9]: 18.4 µM (inactive) | GI50 [10]: > 100 µM (inactive) | GI50 [11]: > 100 µM (inactive) | GI50 [12]: 52.8 µM (inactive) | GI50 [13]: 24.4 µM (inactive) | GI50 [14]: 25 µM (inactive) | GI50 [15]: > 100 µM (inactive) | GI50 [17]: 88.3 µM (inactive)

Clc1ccc(OCc2nnc(CCCCCCCCc3nnc(COc4ccc(Cl)cc4Cl)o3)o2)c(Cl)c1
GI50 [2]: > 100 µM (inactive) | GI50 [3]: > 100 µM (inactive) | GI50 [4]: 49.2 µM (inactive) | GI50 [5]: 95.1 µM (inactive) | GI50 [6]: > 100 µM (inactive) | GI50 [7]: > 100 µM (inactive) | GI50 [8]: > 100 µM (inactive) | GI50 [10]: 69.3 µM (inactive) | GI50 [11]: > 100 µM (inactive) | GI50 [12]: 60.3 µM (inactive) | GI50 [13]: 18.2 µM (inactive) | GI50 [14]: 76.6 µM (inactive) | GI50 [15]: > 100 µM (inactive) | GI50 [16]: 9.44 µM (inactive) | GI50 [17]: > 100 µM (inactive)

CNC(=O)C(C)C1C(=O)/C(=C(O)/C=C\C(C)=C\C(C)C2OC3(C)OC(C=CC34CO4)C2C)C(=O)N1C1CCC(O)C(C)O1 (configuration not stated)
GI50 [1]: > 100 µM (inactive) | GI50 [2]: > 100 µM (inactive) | GI50 [3]: > 100 µM (inactive) | GI50 [4]: > 100 µM (inactive) | GI50 [5]: > 100 µM (inactive) | GI50 [6]: > 100 µM (inactive) | GI50 [7]: > 100 µM (inactive) | GI50 [8]: > 100 µM (inactive) | GI50 [9]: > 100 µM (inactive) | GI50 [10]: > 100 µM (inactive) | GI50 [11]: > 100 µM (inactive) | GI50 [12]: > 100 µM (inactive) | GI50 [13]: > 100 µM (inactive) | GI50 [14]: > 100 µM (inactive) | GI50 [15]: > 100 µM (inactive) | GI50 [16]: > 100 µM (inactive) | GI50 [17]: > 100 µM (inactive)

c1ccc(/C(=N/Nc2ccncn2)c2ccccn2)cc1
GI50 [1]: 32.2 µM (inactive) | GI50 [2]: 20.9 µM (inactive) | GI50 [4]: 30.4 µM (inactive) | GI50 [5]: 22 µM (inactive) | GI50 [6]: 10.3 µM (inactive) | GI50 [7]: > 100 µM (inactive) | GI50 [8]: 35 µM (inactive) | GI50 [9]: 16.6 µM (inactive) | GI50 [10]: 46.8 µM (inactive) | GI50 [11]: 26.4 µM (inactive) | GI50 [12]: 36.5 µM (inactive) | GI50 [13]: 0.528 µM (active) | GI50 [14]: 18.4 µM (inactive) | GI50 [15]: 1.03 µM (active) | GI50 [17]: 0.883 µM (active)

CCOC(=O)C1=COC(C)(CCc2ccccc2)CC1=O (configuration not stated)
GI50 [1]: 66.5 µM (inactive) | GI50 [2]: > 100 µM (inactive) | GI50 [3]: > 100 µM (inactive) | GI50 [4]: 40.9 µM (inactive) | GI50 [5]: 56.2 µM (inactive) | GI50 [6]: > 100 µM (inactive) | GI50 [8]: > 100 µM (inactive) | GI50 [9]: 52.4 µM (inactive) | GI50 [10]: 56.2 µM (inactive) | GI50 [11]: 55.7 µM (inactive) | GI50 [12]: 89.1 µM (inactive) | GI50 [13]: 40.3 µM (inactive) | GI50 [14]: > 100 µM (inactive) | GI50 [15]: > 100 µM (inactive) | GI50 [17]: 56.2 µM (inactive)

CNC/C(Cl)=N/S(=O)(=O)c1ccc(C)cc1
GI50 [1]: 9.71 µM (inactive) | GI50 [2]: 9.27 µM (inactive) | GI50 [3]: 12.7 µM (inactive) | GI50 [4]: 13.2 µM (inactive) | GI50 [5]: 13.8 µM (inactive) | GI50 [6]: 10.3 µM (inactive) | GI50 [7]: 4.74 µM (inactive) | GI50 [8]: 9.75 µM (inactive) | GI50 [9]: 18.9 µM (inactive) | GI50 [10]: 20.4 µM (inactive) | GI50 [11]: 9.64 µM (inactive) | GI50 [12]: 9.59 µM (inactive) | GI50 [13]: 36.1 µM (inactive) | GI50 [14]: 26.1 µM (inactive) | GI50 [15]: 17.5 µM (inactive) | GI50 [16]: 9.66 µM (inactive) | GI50 [17]: 19.2 µM (inactive)

CCOP(=O)(OCC)c1cc(-c2ccccc2)ccc1N
GI50 [2]: > 100 µM (inactive) | GI50 [3]: > 100 µM (inactive) | GI50 [4]: > 100 µM (inactive) | GI50 [5]: > 100 µM (inactive) | GI50 [6]: > 100 µM (inactive) | GI50 [7]: > 100 µM (inactive) | GI50 [9]: > 100 µM (inactive) | GI50 [10]: > 100 µM (inactive) | GI50 [11]: > 100 µM (inactive) | GI50 [12]: > 100 µM (inactive) | GI50 [13]: > 100 µM (inactive) | GI50 [14]: > 100 µM (inactive) | GI50 [15]: > 100 µM (inactive) | GI50 [16]: > 100 µM (inactive) | GI50 [17]: > 100 µM (inactive)

O/N=C1/Nc2ccccc2C(=S)N2CSCC12 (configuration not stated)
GI50 [2]: > 100 µM (inactive) | GI50 [3]: > 100 µM (inactive) | GI50 [4]: 83.2 µM (inactive) | GI50 [5]: 33 µM (inactive) | GI50 [6]: 81.3 µM (inactive) | GI50 [7]: 32.4 µM (inactive) | GI50 [8]: 34 µM (inactive) | GI50 [9]: > 100 µM (inactive) | GI50 [10]: 50.4 µM (inactive) | GI50 [11]: 87.5 µM (inactive) | GI50 [12]: 73.8 µM (inactive) | GI50 [13]: 22.8 µM (inactive) | GI50 [14]: > 100 µM (inactive) | GI50 [15]: 41.9 µM (inactive) | GI50 [16]: > 100 µM (inactive) | GI50 [17]: 36.9 µM (inactive)

COC(=O)C1Cc2c(OC)ccc(OC)c2CC(C(=O)OC)C1=O (configuration not stated)
GI50 [1]: > 100 µM (inactive) | GI50 [2]: > 100 µM (inactive) | GI50 [4]: > 100 µM (inactive) | GI50 [5]: > 100 µM (inactive) | GI50 [6]: > 100 µM (inactive) | GI50 [7]: > 100 µM (inactive) | GI50 [8]: > 100 µM (inactive) | GI50 [9]: > 100 µM (inactive) | GI50 [10]: > 100 µM (inactive) | GI50 [11]: > 100 µM (inactive) | GI50 [12]: > 100 µM (inactive) | GI50 [13]: > 100 µM (inactive) | GI50 [14]: > 100 µM (inactive) | GI50 [15]: > 100 µM (inactive) | GI50 [16]: > 100 µM (inactive) | GI50 [17]: > 100 µM (inactive)
